Consider two compounds from patent publication US8420679B2, “Aminothiazole derivatives and their use as CRF receptor ligands” (Sanofi, priority 1999, dated 2013).

Counter-ions that a name gives are not always drawn.

`C=CCN(c1nc(-c2ccc(OC)cc2Cl)c(C)s1)C(COC)c1ccccc1` (centres unmarked) (as salt: hydrochloride) (hydrate or solvate) [Example 23, Allyl-[4-(2-chloro-4-methoxyphenyl)-5-methylthiazol-2-yl]-(2-methoxy-1-phenylethyl)amine]: the melting point was 70 °C.

As for `CC#CCN(c1nc(-c2ccc(OC)cc2Cl)c(C)s1)C(COC)c1ccccc1` (centres unmarked) (as salt: hydrochloride) (hydrate or solvate) [Example 24, But-2-ynyl-[4-(2-chloro-4-methoxyphenyl)-5-methylthiazol-2-yl]-[2-methoxy-1-phenylethyl]amine], the melting point was determined as 70 °C.

Broadly, the melting point is the temperature of the solid-liquid transition.
